Key:
Assay in all cases: CellTiter-Glo cell viability assay, cancer cell cytotoxicity/anti-proliferation panel (Chempartner)
Type in all cases: cell-based
[1] = system: AsPC-1, pancreas, ductal carcinoma; settings: for Inhibition: AsPC-1, 72 hours, compounds 10 μM starting, STS 2 μM starting, 10-pt, 3-fold dilution; for IC50: Homo sapiens, ASPC1, 72 h, read-out: IC50 (absolute IC50)
[2] = system: Caco-2 ATCC colon adenocarcinoma
[3] = system: PC-3 ATCC prostate adenocarcinoma
[4] = system: TE-6 RIKEN esophagus, carcinoma
[5] = 72 h, read-out: IC50 (absolute IC50)

Q: How did the Inhibition [1] turn out when CCCCCc1cc2c(c(O)c1C(=O)NCCN(C)C)[C@@H]1C=C(C)CC[C@H]1C(C)(C)O2 [Ia6, (6aR,0aR)—N-(2-(dimethylamino)ethyl)-1-hydroxy-6,6,9-trimethyl-3-pentyl-6a,7,8,10a-tetrahydro-6H-benzo[c]chromene-2-carboxamide] was run?
A: 54.46%

Q: And the IC50 [1]?
A: 9.1 µM

Q: What does the source list for CCCCCc1cc2c(c(O)c1C(=O)NCCCN1CCOCC1)[C@@H]1C=C(C)CC[C@H]1C(C)(C)O2 [Ia9, (6aR,0aR)-1-hydroxy-6,6,9-trimethyl-N-(3-morpholinopropyl)-3-pentyl-6a,7,8,10a-tetrahydro-6H-benzo[c]chromene-2-carboxamide]?
A: Inhibition ([2]; Caco-2, 72 hours, compounds 10 μM starting, STS 2 μM starting, 10-pt, 3-fold dilution): 60.81%; IC50 ([2]; Homo sapiens, Caco-2, 72 h, read-out: IC50 (absolute IC50)): 8.87 µM; Inhibition [1]: 64.62%; IC50 [1]: 7.38 µM; IC50 [3, 5]: 9.94 µM; Inhibition ([3]; PC-3, 72 hours, compounds 10 μM starting, STS 2 μM starting, 10-pt, 3-fold dilution): 61.13%; IC50 [4, 5]: 7.36 µM; Inhibition ([4]; TE-6, 72 hours, compounds 10 μM starting, STS 2 μM starting, 10-pt, 3-fold dilution): 67.27%

From US20210087159A1, “TETRAHYDROCANNABINOLIC- CA[…] DERIVATIVES AND USES THEREOF” (AL&AM […]., priority 2018, published 2021)
